melting point [°C]	Compound
248 to 249	COc1ccc2[nH]c(=O)nc(C)c2c1OC
229 to 230	Cc1nc2c(c3c1[nH]c1ccc(F)cc13)C(=O)CC(C)(C)C2
142 to 146	O=C(O)CC1c2ccccc2CCc2cc(Cl)ccc21 (stereo unspecified)
69 to 71	CCOC(=O)CC(C#N)(CC(=O)OCC)c1ccc(Cl)c(Cl)c1
242 to 245	CCCc1nc2c(N)nc3cc(-c4cccc(S(C)(=O)=O)c4)ccc3c2s1
127 to 128	CNC(=O)c1cc(F)c(Cl)cc1Oc1cccc(OC)c1C
184 to 187	Cc1ccc2c(c1)C(OC(C)C)=C(C(=O)O)S2=O (stereo unspecified)
164	CCOC(=O)c1cc(C#N)c(N)cc1OC
30	C=CCC(N)c1cccc(OC)c1 (stereo unspecified)
178 to 179	CC(O)=C(C#N)C(=O)Nc1ccc(OC(F)(F)F)c(Br)c1
68 to 71	CCCSc1ncc(CC(=O)O)n1Cc1ccccc1Cl
83 to 85	C#CCOc1ccc(C(=O)C=Cc2cccs2)c(O)c1
70 to 71	CSc1ccc(C(=O)COc2ccc(F)cc2F)cc1
73 to 74	COc1ccc(CCC(=O)c2cccnc2Oc2ccc(F)cc2)cc1
264	Cc1ccc2[nH]c(=O)c(C#N)c(Cl)c2c1
154	O=C(O)Cc1ccc2c(c1)CCc1ccccc1C2=O
173 to 175	CCCN(CCC)S(=O)(=O)c1cc(-c2csc(=Nc3cc(Cl)c(OC)cc3OC)n2C)ccc1Cl

melting point [°C]	Compound
93 to 94	COC(=O)c1cccc(COc2cccc(OCc3ccc4ccccc4n3)c2)c1
81 to 83	COc1ccc(/C=C/c2cnccn2)cc1OC1CCCC1
108 to 111	CC1CCCN1c1cc(F)cc(C(=O)Nc2ccc(OCCN3CCOCC3)c3ccccc23)c1 (stereo unspecified)
65.4 to 66.3	COc1ccc2ccc(-c3ccccc3)cc2c1
118	COc1nc(-c2cccc(Cl)c2)c2cc(C(=O)N(C)OC)ccc2n1
198 to 200	O=C(Nc1cc(-c2ccnc3c(C(=O)c4cccs4)cnn23)ccc1F)c1c(F)cccc1F
163 to 166	CCOC(=O)c1cc(C(=O)Nc2ccccc2OC(C)=O)cc(Cl)c1O
142 to 145	CN(C)S(=O)(=O)c1ccc2c(c1)C(=O)c1cc(Br)ccc1CC2
215	CC(=O)N(C)Nc1ccnc2c(NC(=O)c3c(Cl)cccc3Cl)cccc12
122 to 123	COc1ccc(Br)c2c1-c1ccc(NS(C)(=O)=O)cc1C(c1ccccc1)O2 (stereo unspecified)
188	CCOC(=O)c1ncc2[nH]c3cccc(OCc4cccc(F)c4)c3c2c1COC
190	O=C(Nc1nc(C(Cl)(Cl)Cl)ns1)c1ccccc1
170 to 172	Cc1cccc2[nH]c3c4c(Cl)cccc4nc-3cc12
217 to 218	CC(=O)Nc1ccc2c(c1)CCN2NC(C)=O
119	COc1ccc(C(=O)c2cc([N+](=O)[O-])ccc2N2CCC(C)CC2)cc1
162 to 164	CCN(C)c1cc(Br)cc(S(=O)(=O)c2ccc(N)cc2)c1

The remaining lines, values behind:

Compound	melting point [°C]
CCCCOCCOc1ccc(-c2ccc3c(c2)C=C(C(=O)Nc2ccc(S(=O)Cc4cncn4CCC)cc2)CCCN3CC(C)C)cc1 (single isomer, unassigned; (-))	120 to 122
CCOc1ccc2nc(NC(=O)CN3CCN(C(=O)CCCCCCC(=O)N(O)C(C)=O)CC3)sc2c1	98 to 103
O=C(CCCc1cccnc1)N1CCC(CC(c2ccc(F)cc2)c2ccc(F)cc2)CC1	108 to 110
CCc1c(O)c(=O)ccn1CCOC(=O)C(C)(C)C	113 to 115
CN(C)c1c(S(=O)C(F)(F)F)c(-c2ncon2)nn1-c1c(Cl)cc(C(F)(F)F)cc1Cl (stereo unspecified)	82 to 84
COc1ccc2c(c1)CC(C)(CN1CCC(c3ccccc3)CC1)NC2=O (stereo unspecified)	93 to 95
CCOC(=O)CC(=O)c1cccs1	143 to 145
CN(C)C(=O)c1ccc(CNC(=O)C2Cc3ccccc3N2S(=O)(=O)c2ccc(-c3cccc(C(F)(F)F)c3)cc2)cc1 (stereo unspecified)	70
CC(=C1SC(=O)NC1=O)c1ccc(OCCOc2c(-c3ccc(F)c(F)c3)n(C)c3ccccc3c2=O)cc1	248 to 250
CC(=O)CSc1cc(C(C)(C)C)c(O)c(C(C)(C)C)c1	105 to 106
O=C(Cc1ccc(F)cc1)N1CCN(Cc2ccccc2)CC1	99 to 101
CCOC(C)c1cc2c(=O)n(NS(C)(=O)=O)c(=O)[nH]c2cc1C(F)(F)F (stereo unspecified)	105 to 112
CCOC(=O)CCn1ccn(C2CCc3ccccc3C2)c1=S (stereo unspecified)	71 to 73
CN1C(=O)C(C(C)(C)C)NNC1=S (stereo unspecified)	214
O=c1[nH]c2ccccc2c2c(C(O)CC3CCCCC3)n(-c3ccccc3)nc12 (stereo unspecified)	254 to 259
NC(=O)[C@@H]1[C@H](Nc2c(Br)cnc3[nH]c(-c4ccoc4)nc23)[C@H]2C=C[C@@H]1C2	231 to 232
CC1=C(c2ccccc2)C(=O)N(C(C)(C)C(=O)C2CCCCC2)CO1	94
CC(=O)OC1CSC(Oc2ccc(-c3cccnc3Cl)nc2)C(OC(C)=O)C1OC(C)=O (stereo unspecified)	180
O=C1NC(=O)c2c1c(-c1ccccc1)cc1c2c2cc(O)ccc2n1CCN1CCOCC1	260 to 262

Compound	melting point [°C]
O=C1c2nc(O)ccc2C(=O)c2c(-c3ccccc3NC(=O)C(F)(F)F)ccnc21	> 260
CC1=C(C(=O)OCCN(C)Cc2ccccc2)C(c2cccc3c(=O)c(C)c(-c4ccccc4)oc23)C(C(=O)OC(C)C)=C(C)N1 (stereo unspecified)	170 to 172
Clc1ccc(OC(c2ccc(Cl)cc2)C(Cl)(Cl)Cl)cc1 (stereo unspecified)	101
O=C1N(Cc2cnc(O)nc2)c2ccccc2C12COc1cc3c(cc12)OCCO3 (stereo unspecified)	> 250
CC1Oc2c(cc(CN3CCN(c4ccc(C(=O)NC5CC5)cc4)CC3)cc2-c2ccccc2)NC1=O (stereo unspecified)	217 to 224
O=C(C1CCCCC1)N1CC(=O)N(CCc2ccccc2)C(O)C1 (stereo unspecified)	134
O=C(O)c1c[nH]c2cn[nH]c2c1=O	> 330
COc1ccc2[nH]c(=O)c(-c3nnnn3Cc3cccc(OCc4ccc5ccccc5n4)c3)cc2c1	215 to 217
CC(Cc1ccccc1)(NC=O)c1ccccc1 (stereo unspecified)	97 to 99
O=C1c2ccccc2OCC1Br (stereo unspecified)	48 to 51
O=C(COc1ccc(CN2CCCC2)cc1)Nc1ccc(Br)cc1	143 to 145
C=CCOC(=O)CC(=O)NC1C(=O)N2C1SC(C)(C)C2C(=O)OCC=C (stereo unspecified)	59 to 60
CC(Oc1ncn(-c2ccccc2)n1)C(=O)O (stereo unspecified)	140 to 142
COc1cccc(OC)c1C(=O)P(=O)(CC(C)C)C(=O)c1c(C)cc(C)cc1C (stereo unspecified)	105 to 106
C#CCC(CC#C)NC(=O)C(F)(F)F	55 to 57
FC(F)(F)c1cc(Cl)c(-n2cc(I)nn2)c(Cl)c1	194 to 195
O=[N+]([O-])c1cc(Cl)ccc1NCCO	98 to 100
O=C(O)c1ccccc1CNC(=O)C1Cc2ccccc2N1S(=O)(=O)c1ccc(-c2cccc(C(F)(F)F)c2)cc1 (stereo unspecified)	118
CC(C)n1cc(C(=O)C(F)(F)F)c2ccc(C(F)(F)F)cc21	92 to 93

— a melting point compilation (Tetko et al.; mined from patent text by program, amines drawn as free bases though some values may be those of a salt)
